From patent US20260250312A1, “ANTIBACTERIAL COMPOUNDS ELIMINATING DORMANT BACTERIAL CELLS” (UNIVERSITÉ D'AIX-MARSEILLE, priority 2022, published 2026)
“And” between values parts separate entries of the source, which are not always exact repeats. Identical values can stand only once. Like-named read-outs stand apart in the source and are kept apart here.

Columns and labels:
[1] = system: Staphylococcus aureus (ATCC25923); assay: Microdilution MIC assay (CLSI-based), S. aureus; type: cell-based; conditions: Staphylococcus aureus, ATCC25923, 20 h, 20 hours incubation at 35-37° C., MHB; read-out: Minimum inhibitory concentration S. aureus ATCC25923
How it was run: (§1)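 Broth microdilution per modified CLSI guidelines in Mueller Hinton broth, 200 μL, inoculum ca. 5×10^5 CFU/mL; compounds tested as salts, twofold dilutions from 0.2 mg/mL, in triplicate. MIC determined from OD at 620 nm after incubation.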

CHO-K1 cells = assay: WST1 cytotoxicity test; type: cell-based, Chinese hamster; conditions: for IC50: Cricetulus griseus
How it was run: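 CHO-K1 cells pre-cultured 24 h, then exposed 24 h at 37 °C to increasing compound concentrations. Viability read as WST-1 formazan absorbance at 450 nm after 20 min; dose-response fitted by nonlinear regression.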

[2] = system: Escherichia coli (ATCC28922); assay: Microdilution MIC assay (CLSI-based), E. coli; type: cell-based; conditions: Escherichia coli, ATCC28922, 20 h, 20 hours incubation at 35-37° C., MHB; read-out: Minimum inhibitory concentration E. coli ATCC28922
How it was run: as §1

[3] = system: Pseudomonas aeruginosa (ATCC27853); assay: Microdilution MIC assay (CLSI-based), P. aeruginosa; type: cell-based; conditions: Pseudomonas aeruginosa, ATCC27853, 20 h, 20 hours incubation at 35-37° C., MHB; read-out: Minimum inhibitory concentration P. aeruginosa ATCC27853
How it was run: as §1

[4] = system: E. coli non-persister cells; assay: Anti-persister activity test, non-persister cells; type: cell-based, Escherichia coli; conditions: for viability at 250 µM: read-out: Non-persister cell survival rate 96 h, concentration used 250 μM, 4 hours treatment
Experimental: (§2) Anti-persister activity test: Escherichia coli (E. coli) persister cells were generated and isolated as described by MARQUES, C. N. H. et al. (Applied and Environmental Microbiology 2014, Vol. 80, No. 22, pp. 6976-6991). E. coli persister cells were compared to E. coli non-persister cells. 1 mL persister or non-persister bacteria culture was added in a 1.5 mL microtube with each of the compounds to be tested or ciprofloxacin as a […], and incubated at 37° C. with 160 rpm shaking for 4 hours. After 4 hours treatment with the compounds, the microtubes were centrifuged at 3,500g for 5 minutes and the pellets were resuspended in 1 mL of fresh drug free RM broth (10 g/L M9 salt, 2% casamino acids, 1 mM MgCl2, 1% glycerol). Resuspended bacteria were then plated over LB agar plates and incubated at 37° C. Bacterial colonies were enumerated after 24, 48 and 96 hours to estimate the survival rate.

[5] = system: Enterococcus faecalis (ATCC29212); assay: Microdilution MIC assay (CLSI-based), E. faecalis; type: cell-based; conditions: Enterococcus faecalis, ATCC29212, 20 h, 20 hours incubation at 35-37° C., MHB; read-out: Minimum inhibitory concentration E. faecalis ATCC29212
How it was run: as §1

[6] = system: Escherichia coli (E. coli) persister cells; assay: Anti-persister activity test, persister cells; type: cell-based; conditions: for anti-persister activity (in words): E. coli persister cells, Table 8 conditions; for viability at 250 µM: read-out: Persister cell survival rate 96 h, concentration used 250 μM, 4 hours treatment
Experimental: as §2

[7] = CHO-K1, 24 h, WST1, 24 hours at 37° C., read-out: IC50 CHO
[8] = CHO-K1, WST1, as printed in Table 8, read-out: Toxicity IC50 CHO

For `CC[C@@H](C)[C@H](NC(=O)CC[C@@H](C)[C@H]1CC[C@H]2[C@@H]3[C@H](O)C[C@@H]4C[C@@H](NCCCNCCCCNCCCN)CC[C@]4(C)[C@H]3CC[C@]12C)C(=O)OC` [Compound S044, methyl (2S,3R)-2-((4R)-4-((3S,5S,7R,10S,13R,17R)-3-((3-((4-((3-aminopropyl)amino)butyl)amino)propyl)amino)-7-hydroxy-10,13-dimethylhexadecahydro-1H-cyclopenta[a]phenanthren-17-yl)pentanamido)-3-methylpentanoate], the MIC [1] was 6.25 µM and 4 µg/mL, the “toxicity results (in words)” value (CHO-K1 cells) was “good toxicity results” and the IC50 (CHO-K1 cells; [7]) was 52.4 µM and 36.9 µg/mL. The IC50 (CHO-K1 cells; [8]) was 52.4 µM, the MIC [2] was 6.25 µM and 4 µg/mL and the MIC [3] was 12.5 µM and 8 µg/mL. The viability at 62.5 µM ([4]; Escherichia coli, 4 h, read-out: Non-persister cell survival rate 96 h, concentration used 62.5 μM, 4 hours treatment) was 0%, the MIC [5] was 6.25 µM and 4 µg/mL and the “anti-persister activity (in words)” value [6] was “both anti-persister and anti-bacterial activities”. The viability at 62.5 µM ([6]; Escherichia coli, 4 h, read-out: Persister cell survival rate 96 h, concentration used 62.5 μM, 4 hours treatment) was 0%.
`COC(=O)[C@@H](NC(=O)CC[C@@H](C)[C@H]1CCC2C3C(CC[C@@]21C)[C@@]1(C)CC[C@H](NCCCNCCNCCCN)C[C@H]1C[C@H]3O)C(C)C` (stereo partly drawn) [Compound S013, methyl ((4R)-4-((3S,5S,7R,10S,13R,17R)-3-((3-((2-((3-aminopropyl)amino)ethyl)amino)propyl)amino)-7-hydroxy-10,13-dimethylhexadecahydro-1H-cyclopenta[a]phenanthren-17-yl)pentanoyl)-L-valinate] was tested, and the MIC [1] was 6.25 µM and 4 µg/mL, the “toxicity results (in words)” value (CHO-K1 cells) was “good toxicity results” and the IC50 (CHO-K1 cells; [7]) was 96.3 µM and 63.7 µg/mL. For the same compound, the IC50 (CHO-K1 cells; [8]) was 96.3 µM, the MIC [2] was 6.25 µM and 4 µg/mL and the MIC [3] was 25 µM and 16 µg/mL. For the same compound, the viability at 250 µM ([4]; Escherichia coli, 4 h) was 0%, the MIC [5] was 12.5 µM and 8 µg/mL and the “anti-persister activity (in words)” value [6] was “both anti-persister and anti-bacterial activities”. The viability at 250 µM ([6]; Escherichia coli, 4 h) was 0%.
In the case of `CC[C@H](C)[C@H](NC(=O)CC[C@@H](C)[C@H]1CC[C@H]2[C@@H]3[C@H](O)C[C@@H]4C[C@@H](NCCCNCCNCCCN)CC[C@]4(C)[C@H]3CC[C@]12C)C(=O)OC` [Compound S041, methyl (2S,3S)-2-((4R)-4-((3S,5S,7R,10S,13R,17R)-3-((3-((2-((3-aminopropyl)amino)ethyl)amino)propyl)amino)-7-hydroxy-10,13-dimethylhexadecahydro-1H-cyclopenta[a]phenanthren-17-yl)pentanamido)-3-methylpentanoate], the MIC [1] is reported as 12.5 µM and 8 µg/mL, the IC50 (CHO-K1 cells; [7]) is reported as 9.8 µM and 6.63 µg/mL and the IC50 (CHO-K1 cells; [8]) is reported as 9.8 µM. For the same compound, the MIC [2] was 12.5 µM and 8 µg/mL, the MIC [3] was 12.5 µM and 8 µg/mL and the “activity on non-persister cells (in words)” value ([4]; E. coli non-persister cells, Table 8 conditions) was “good activity on non-persister cells”. For the same compound, the viability at 125 µM ([4]; Escherichia coli, 4 h, read-out: Non-persister cell survival rate 96 h, concentration used 125 μM, 4 hours treatment) was 0%, the MIC [5] was 12.5 µM and 8 µg/mL and the “anti-persister activity (in words)” value [6] was “not as good on persister cells”. For the same compound, the viability at 125 µM ([6]; Escherichia coli, 4 h, read-out: Persister cell survival rate 96 h, concentration used 125 μM, 4 hours treatment) was 0.1%.
For `COC(=O)[C@@H](Cc1ccccc1)NC(=O)CC[C@@H](C)[C@H]1CCC2C3C(CC[C@@]21C)[C@@]1(C)CC[C@H](NCCNCCNCCN)C[C@H]1C[C@H]3O` (stereo partly drawn) [Compound S010, methyl ((4R)-4-((3S,5S,7R,10S,13R,17R)-3-((2-((2-((2-aminoethyl)amino)ethyl)amino)ethyl)amino)-7-hydroxy-10,13-dimethylhexadecahydro-1H-cyclopenta[a]phenanthren-17-yl)pentanoyl)-D-phenylalaninate], the MIC [1] was 12.5 µM and 8 µg/mL, the “toxicity results (in words)” value (CHO-K1 cells) was “good toxicity results” and the IC50 (CHO-K1 cells; [7]) was 114 µM and 77.4 µg/mL. For the same compound, the IC50 (CHO-K1 cells; [8]) was 114 µM, the MIC [2] was 50 µM and 32 µg/mL and the MIC [3] was 50 µM and 32 µg/mL. The viability at 250 µM ([4]; Escherichia coli, 4 h) was 4.2%, the MIC [5] was 12.5 µM and 8 µg/mL and the “anti-persister activity (in words)” value [6] was “very potent anti-persister activity”. For the same compound, the viability at 250 µM ([6]; Escherichia coli, 4 h) was 0.8%.
For `O=C(O)c1cn(C2CC2)c2cc(N3CCNCC3)c(F)cc2c1=O` [Ciprofloxacin, ciprofloxacin, reference compound], the viability at 200 µM ([4]; Escherichia coli, concentration used 200 μM, 4 hours treatment, read-out: Non-persister cell survival rate 96 h) was 0% and the viability at 200 µM ([6]; Escherichia coli, concentration used 200 μM, 4 hours treatment, read-out: Persister cell survival rate 96 h) was 5.6%.
`COC(=O)[C@H](CC(C)C)NC(=O)CC[C@@H](C)[C@H]1CCC2C3C(CC[C@@]21C)[C@@]1(C)CC[C@H](NCCCNCCNCCCN)C[C@H]1C[C@H]3O` (stereo partly drawn) [Compound S035, methyl ((4R)-4-((3S,5S,7R,10S,13R,17R)-3-((3-((2-((3-aminopropyl)amino)ethyl)amino)propyl)amino)-7-hydroxy-10,13-dimethylhexadecahydro-1H-cyclopenta[a]phenanthren-17-yl)pentanoyl)-L-leucinate] was tested, and the MIC [1] was 12.5 µM and 8 µg/mL, the IC50 (CHO-K1 cells; [7]) was 45.2 µM and 30.6 µg/mL and the MIC [2] was 12.5 µM and 8 µg/mL. For the same compound, the MIC [3] was 12.5 µM and 8 µg/mL and the MIC [5] was 12.5 µM and 8 µg/mL.
In the case of `COC(=O)[C@H](Cc1ccccc1)NC(=O)CC[C@@H](C)[C@H]1CCC2C3C(CC[C@@]21C)[C@@]1(C)CC[C@H](NCCCCN)C[C@H]1C[C@H]3O` (stereo partly drawn) [Compound S030, methyl ((4R)-4-((3S,5S,7R,10S,13R,17R)-3-((4-aminobutyl)amino)-7-hydroxy-10,13-dimethylhexadecahydro-1H-cyclopenta[a]phenanthren-17-yl)pentanoyl)-L-phenylalaninate], the MIC [1] is reported as 100 µM and 64 µg/mL, the IC50 (CHO-K1 cells; [7]) is reported as > 500 µM and > 311 µg/mL and the MIC [2] is reported as 50 µM and 32 µg/mL. The MIC [3] was > 200 µM and > 124 µg/mL and the MIC [5] was 200 µM and 124 µg/mL.
In the case of `COC(=O)[C@@H](NC(=O)CC[C@@H](C)[C@H]1CCC2C3C(CC[C@@]21C)[C@@]1(C)CC[C@H](NCCNCCNCCNCCN)C[C@H]1C[C@H]3O)C(C)C` (stereo partly drawn) [Compound S049, methyl ((4R)-4-((3S,5S,7R,10S,13R,17R)-3-((2-((2-((2-((2-aminoethyl)amino)ethyl)amino)ethyl)amino)ethyl)amino)-7-hydroxy-10,13-dimethylhexadecahydro-1H-cyclopenta[a]phenanthren-17-yl)pentanoyl)-L-valinate], the MIC [1] is reported as 50 µM and 32 µg/mL, the IC50 (CHO-K1 cells; [7]) is reported as 94.9 µM and 64.2 µg/mL and the MIC [2] is reported as 100 µM and 64 µg/mL. The MIC [3] was 100 µM and 64 µg/mL and the MIC [5] was 100 µM and 64 µg/mL.
`COC(=O)CNC(=O)CC[C@@H](C)[C@H]1CCC2C3C(C[C@H](O)[C@@]21C)[C@@]1(C)CC[C@H](NCCCNCCCCNCCCN)C[C@H]1C[C@H]3O` (stereo partly drawn) [Compound S051, methyl ((4R)-4-((3S,5S,7R,10S,12S,13R,17R)-3-((3-((4-((3-aminopropyl)amino)butyl)amino)propyl)amino)-7,12-dihydroxy-10,13-dimethylhexadecahydro-1H-cyclopenta[a]phenanthren-17-yl)pentanoyl)glycinate] was tested, and the MIC [1] was 6.25 µM and 4 µg/mL, the IC50 (CHO-K1 cells; [7]) was 33.3 µM and 22.1 µg/mL and the MIC [2] was 25 µM and 16 µg/mL. The MIC [3] was 25 µM and 16 µg/mL and the MIC [5] was 50 µM and 32 µg/mL.
